From patent publication US7504489B2, “Inhibitors of ADP-ribosyl transferases, cyclases, and hydrolases, and uses thereof” (Albert Einstein College of Medicine of Yeshiva University, priority 2001, dated 2009)
“And” between values parts separate entries of the source, which are not always exact repeats. Equal values may be shown once.

Assays:
CD38 [1] = target: T1, CD38 (Homo sapiens, UniProt P28907); assay: CD38 activity and inhibition measurements (time-dependent inactivation, NGD+ to cGDPR, absorbance at 295 nm); type: biochemical; details: for residual enzymatic activity, % of the control: 10 min after treatment of enzyme (500 nM) with excess inhibitor (10 μM), 10 min, 10 µM
T1 sequence (P28907 45-300): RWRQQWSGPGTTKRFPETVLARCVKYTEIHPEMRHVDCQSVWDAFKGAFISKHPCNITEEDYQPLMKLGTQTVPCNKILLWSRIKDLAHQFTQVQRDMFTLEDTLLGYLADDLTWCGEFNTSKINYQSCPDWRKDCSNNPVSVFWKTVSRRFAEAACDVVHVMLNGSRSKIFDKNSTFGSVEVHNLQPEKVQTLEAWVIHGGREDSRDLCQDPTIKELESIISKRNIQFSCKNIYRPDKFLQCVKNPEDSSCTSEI
Method: […] Aliquots of the reaction were assayed by placing 5 μl of the reaction mixture into 1 ml of 50 mM HEPES (pH 7.5) containing 100 μM NGD^+, at 30, 60, 90, 120, 180, or 300 sec. The conversion of NGD^+ to cGDPR was monitored by determining absorbance at 295 nm. A reaction mixture lacking inhibitor was used as a control. Activity was determined as a function of time, and fitted to the equation A(t)=[…]^-kt, where A0 is activity at time zero (control), t is time in seconds, and k is the observed pseudo-first-order rate constant. Human CD38 (200 nM) was incubated with β-1'-pyridyl-2'-deoxyribose (25 mM) in a volume of 100 μl of 50 mM Tricine (pH 7.5). Aliquots of the reaction (5 μl) were assayed by placing into 1 ml of 50 mM HEPES (pH 7.5) containing 100 μM NGD^+ at 750, 1500, 2250, 3000, 4000, 8000, and 14400 s. The conversion of NGD^+ to cGDPR was monitored by absorbance at 295 nm. A reaction mixture lacking inhibitor was used as a control. Activity was determined as a function of time, and fitted to the equation A(t)=C+[…]^-kt, where A0 is activity at time zero (control), t is time in s, k is the observed pseudo-first-order rate constant, and C represents uninhibited activity at equilibrium.

CD38 [2] = target: T1, CD38; assay: Radiochemical measurement of reaction rates (covalent labelling of CD38 by [2′-3H] inhibitor, gel filtration); type: binding; details: for kon (radioactivity, radiolabeled inhibitor bound versus time): [2′-3H]βNdR 9 μM, CD38 1.2 μM, gel filtration
Method: [2′-^3H]β-1′-nicotinamide-2′-deoxyribose ([2′-^3H]βNdR) was used to measure the covalent interaction of inhibitor with CD38 as follows: 9 μM inhibitor with specific activity of 1233 cpm/nmol was incubated with 1.2 μM CD38 in a volume of 1 ml of 50 mM potassium phosphate (pH 7.5). The reactions were started by enzyme addition, and quenched by freezing in a dry ice/acetone bath after 30, 60, 90, 120, 250, 500, and 1000 sec. Samples were placed on 1 ml gel filtration columns (0° C.) that were used to separate protein from free inhibitor. Columns were cooled on ice, and eluted with cold (0° C.) 10 mM potassium phosphate (pH 7.5) as eluant. Fractions (1 ml) were combined with 9 ml of scintillation fluid, and counted for radioactivity. A sample lacking enzyme, but having the same incubations, was performed as a blank control. A sample using the α-[2′-^3H]nicotinamide-2′-deoxyribose of equal concentration and specific activity, and having the same incubations, was performed as a second control. The observed cpm in the protein peak (fractions 3+4) was fitted to the equation A(t)=A0(1−exp(−kt))+B, where A(t) is the cpm in protein at time t, A0 is the cpm at reaction completion, k is the observed pseudo-first-order rate constant, B is the activity of the blank, and t is the time in seconds.
The covalent interaction of [2′-^3H]β-1′-pyridyl-2′-deoxyribose with CD38 was measured as follows: 25 mM inhibitor with specific activity of 1233 cpm/nmol was incubated with 25.2 μM CD38 in a volume of 50 μl of 50 mM Tricine (pH 7.5). The reactions were started by enzyme addition, and quenched by freezing in a dry ice/acetone bath after 2 h, 7200 s. Samples were placed on (0° C.) 1-ml gel filtration columns (P-10) that were used to separate protein from free inhibitor. Columns were cooled on ice, and eluted with cold (0° C.) 10 mM potassium phosphate (pH 7.5) as eluant. Fractions (1 ml) were combined with 9 ml of scintillation fluid, and counted for radioactivity. A sample lacking enzyme, but undergoing the same incubations, was performed as a blank control. A sample using the α-[2′-^3H]nicotinamide-2′-deoxyribose of equal concentration and specific activity, and the same incubations, was used as a second control. The observed cpm in the protein peak (fractions 3+4) were fitted to the equation A(t)=A0(1−exp(−kt))+B, where A(t) is the cpm in protein at time t, A0 is the cpm at reaction completion, k is the observed pseudo-first-order rate constant, B is the activity of the blank, and t is the time in s.

CD38 [3] = target: T1, CD38; assay: Determination of Ki and kchem by competitive method (NGD+ substrate, absorbance at 295 nm); type: biochemical
Method: CD38 was used to start reactions containing 1-ml solutions of 50 mM potassium phosphate, 100 μM NGD, and 50, 25, 12.5, 6.25, and 0 μM βNdR. Reactions were initiated with 2 μl of 7 μM CD38, and reaction progress was monitored by measurement of absorbance at 295 nm. The initial slopes were used to determine the Ki value. The time course of absorbance for each sample was fitted to the equation A(t)=vt+(b−v)(1−exp(−kt))/k+A0, where k is the observed rate constant, b is the initial rate, v is the final rate, and A0 is the initial absorbance. The rate constant kchem (FIG. 3) was determined as reported (19).
This mechanism of inhibition was tested by treatment of CD38 with different concentrations of inhibitor in the presence of 50 Km of substrate to establish values for Ki and kchem. In the presence of 100 μM NGD^+, reaction mixtures containing 0 to 50 μM βNdR were initiated by addition of enzyme (FIG. 8).

CD38 [4] = target: T1, CD38; assay: as above; type: biochemical; remark: listed apart in the source
CD38 [5] = target: T2, CD38 (Homo sapiens, UniProt P28907); details: 37° C.; cited from earlier work
T2 sequence (P28907 1-300): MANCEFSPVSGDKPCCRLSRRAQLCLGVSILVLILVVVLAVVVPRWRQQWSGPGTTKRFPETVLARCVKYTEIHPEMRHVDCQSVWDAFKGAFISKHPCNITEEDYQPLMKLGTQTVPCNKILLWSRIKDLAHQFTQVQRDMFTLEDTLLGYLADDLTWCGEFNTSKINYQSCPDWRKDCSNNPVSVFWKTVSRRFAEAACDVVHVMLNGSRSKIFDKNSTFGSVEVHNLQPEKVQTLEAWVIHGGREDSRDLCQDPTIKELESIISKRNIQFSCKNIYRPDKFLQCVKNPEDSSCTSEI

CD38 [6] = target: T1, CD38; assay: Off-rate measurement (recovery of CD38 catalytic activity after inactivation); type: biochemical
Method: Recovery of CD38 catalytic activity after inactivation with β-1′-nicotinamide-2′-deoxyribose was measured in reaction mixtures containing 500 nM CD38, 50 mM inhibitor, and 15 μM deoxyriboside. After timed intervals, 5 μl of the reaction mixture were added to a 1-ml reaction of 50 mM HEPES (pH 7.5) containing 300 μM NGD^+. A control was also prepared without the inhibitor. Production of cGDPR was determined by monitoring absorbance at 295 nm. The absorbance was fitted to the equation A(t)=vt+(b−v)(1−exp(−kofft))/koff+A0 (19), where koff is the observed rate constant, b is the initial rate, v is the final rate, and A0 is the initial absorbance. Recovery of CD38 catalytic activity after inhibition by βNdR was measured by adding inactivated CD38 to solutions of NGD^+, and monitoring absorbance change at 295 nm for periods of 3-4 h. The recovery process was slow: full catalytic activity was not restored over this time period. However, the measured rate constant for recovery could be measured by regressive fit of the data to the activity recovery equation, A(t)=vt+(b−v)(1−exp(−kofft))/koff+A0, where koff is the observed rate constant, b is the initial rate, v is the final rate, and A0 is the initial absorbance. […] The proposed mechanism of recovery operates through the hydrolytic path (FIG. 4).

[7] = listed as β-1′-nicotinamide-2′-deoxyribose

5′-phospho-1′-β-pyridyl-2′-deoxyribose [5′-phospho-1′-pyridyl-deoxyribose]
effect of extended incubation on CD38 (CD38 [1]; 200 μM inhibitor): inhibited the enzyme | minimum value for kchem (CD38 [1]; 200 μM inhibitor, extended incubations, activity versus time): ≥ 0.00022 s⁻¹ | covalent attachment of the sugar moiety to the enzyme (CD38 [2]; [2′-3H] labelled inhibitor, gel-filtration): confirmed covalent attachment | Ki (CD38 [3]; 5′-phospho derivative, similar studies, read-out: Ki): > 200 µM

NC(=O)c1ccc[n+]([C@@H]2O[C@H](COP(=O)([O-])OP(=O)(O)OC[C@H]3O[C@@H](n4cnc5c(=O)[nH]c(N)nc54)[C@H](O)[C@@H]3O)[C@@H](O)[C@H]2O)c1 [NGD^+, Nicotinamide guanine dinucleotide, reference compound]
Km (CD38 [4]; CD38 substrate): 2 µM

NC(=O)c1ccc[n+]([C@@H]2O[C@H](COP(=O)(O)O)[C@@H](O)[C@H]2O)c1 [NMN^+]
kcat for hydrolysis (hydrolysis of the covalent intermediate) (CD38 [5]): 512 s⁻¹

OC[C@H]1O[C@@H]([n+]2ccccc2)C[C@@H]1O [β-pyridyl-deoxyribose, β-1′-pyridyl-2′-deoxyribose]
extent of inhibition achieved (CD38 [1]; 25 mM inhibitor, limited by long onset times and inhibitor decomposition): 60-80% | rate of covalent inactivation, equivalent to kchem (CD38 [1]; saturating concentration (25 mM), absence of NGD+): 0.00017 s⁻¹ | Ki (CD38 [3]; calculated value, read-out: Kieff (koffKi/kchem)): 323 µM | Kieff relative to Kieff for βNdR (CD38 [3]; times larger): 10^5 times | Ki (CD38 [4]; 50 μM to 50 mM inhibitor, 5 μM (3 Km) NGD+, read-out: Ki for CD38 inhibition): 11000 µM

NC(=O)c1ccc[n+]([C@H]2C[C@H](O)[C@@H](CO)O2)c1 [βNdR, β-1′-nicotinamide-2′-deoxyribose]
residual enzymatic activity, % of the control (CD38 [1]): less than 5% | residual enzymatic activity, % of the control (CD38 [1]; [7]): < 5% | Ki (CD38 [1]; kon from activity decay, read-out: Kieff = koff/kon (Activity, koff)): 0.0051 µM | Ki (CD38 [1]; read-out: Kieff = koff/kon (kon from activity decay)): 0.005 µM | kon (radioactivity, radiolabeled inhibitor bound versus time) (CD38 [2]): 1540 M⁻¹ s⁻¹ | kon (radioactivity, radiolabeled inhibitor bound versus time) (CD38 [2]; [7]): 1500 M⁻¹ s⁻¹ | Ki (CD38 [2]; kon from radioactivity, read-out: Kieff = koff/kon (Radioactivity, koff)): 0.0033 µM | Ki (CD38 [2]; read-out: Kieff = koff/kon (kon from radioactivity)): 0.0032 µM | koff, rate constant for recovery (activity recovery, hydrolysis) (CD38 [6]; inactivated CD38 added to NGD+, 3-4 h, no nicotinamide): 5e-06 s⁻¹ | rate of CD38-deoxyribose hydrolysis relative to CD38 ribose 5-phosphate (CD38 [6]; ratio of hydrolysis rates of covalent intermediates): 10^−8 | kchem, rate constant for chemical reaction (competitive onset) (CD38 [3]; 100 μM NGD+, 0 to 50 μM inhibitor, listed as β-1′-nicotinamide-2′-deoxyribose): 0.0126 s⁻¹ | Ki (CD38 [3]; 100 μM NGD+, 0 to 50 μM inhibitor, listed as β-1′-nicotinamide-2′-deoxyribose, read-out: Ki (competitive, initial slopes)): 2.5 µM | Ki (CD38 [3]; 100 μM NGD+, 0 to 50 μM inhibitor, read-out: Ki (competitive, initial slopes)): 1 µM | Ki (CD38 [3]; average of the three Kieff values, read-out: Kieff (Average of values)): 0.0029 µM | Ki (CD38 [3]; listed as β-D-1′-nicotinamide-2′-deoxyribofuranoside, read-out: Kieff, effective inhibition constant (average)): 0.0029 µM | Ki (CD38 [3]; read-out: Kieff = Kikoff/kchem): 0.0004 µM | Ki (CD38 [3]; read-out: Kieff, effective inhibition constant (average)): 0.0029 µM and 0.002 µM
